Patent publication US20130274174A1, “THERAPEUTIC COMBINATION OF DAPTOMYCIN AND PROTEIN SYNTHESIS INHIBITOR ANTIBIOTIC, AND METHODS OF USE” (priority 2011, published 2013)
In brackets after ≈: the same amount, converted by molar mass. Where two headings read alike, the source gives them in different places.

Test system: S. aureus MW2 (NRS123)
Assay: microbe, parasite or virus in culture
Assay type: cell-based, Staphylococcus aureus
Details: Staphylococcus aureus
Method: S. aureus strains MW2 (NARSA collection clinical MRSA isolate, NRS123) and ATCC 33591 (MRSA strain from the American Type Culture Collection) were cultured on Mueller-Hinton II cation adjusted (MHA) medium in 90×90 mm square petri dishes. MHA containing ¼ of the MIC value of TR-700, TR-705, LZD, TIA, CLI, TET, or VAN, TMP/SMX throughout the plate and a continuous linear gradient of DAP across the plate was used to passage MW2. ATCC 33591 was passaged with ¼ of the MIC of a subset of these drugs (TR-700, TMP/SMX, and VAN). A DAP-only control passage group was included for both strains. DAP gradients were created by pouring two layers of media as previously described (Bryson, V., et al. 1952. Microbial selection. Science 116:45-51; Locke, J. B., et al., 2009. Antimicrob. Agents Chemother. 53:5265-5274). Following each passage the leading edge of growth (i.e., most resistant cells) was resuspended in phosphate buffered saline (PBS) to an absorbance of 0.30 OD600 and a 100 μl aliquot containing ˜3.0×10^7 CFU (colony-forming units) was spread on to the proceeding passage plate. The starting maximal DAP concentration was 2 μg/ml and was increased in two-fold increments when the leading edge of growth surpassed the half way point on the plate. A glycerol stock was made from the total cell population for each culture condition for each passage. Thirty serial passages were completed for each treatment group.

[1] = NRS123, passage 5, selection group DAP
[2] = NRS123, passage 5, selection group DAP + CLI
[3] = NRS123, passage 5, selection group DAP + LZD
[4] = NRS123, passage 5, selection group DAP + TET
[5] = NRS123, passage 5, selection group DAP + TIA
[6] = NRS123, passage 5, selection group DAP + TMP/SMX
[7] = NRS123, passage 5, selection group DAP + TR-700
[8] = NRS123, passage 5, selection group DAP + TR-705
[9] = NRS123, passage 5, selection group DAP + VAN
[10] = NRS123, passage 10, selection group DAP
[11] = NRS123, passage 10, selection group DAP + CLI
[12] = NRS123, passage 10, selection group DAP + LZD
[13] = NRS123, passage 10, selection group DAP + TET
[14] = NRS123, passage 10, selection group DAP + TIA
[15] = NRS123, passage 10, selection group DAP + TMP/SMX
[16] = NRS123, passage 10, selection group DAP + TR-700
[17] = NRS123, passage 10, selection group DAP + TR-705
[18] = NRS123, passage 10, selection group DAP + VAN
[19] = NRS123, passage 15, selection group DAP
[20] = NRS123, passage 15, selection group DAP + CLI
[21] = NRS123, passage 15, selection group DAP + LZD
[22] = NRS123, passage 15, selection group DAP + TET
[23] = NRS123, passage 15, selection group DAP + TIA
[24] = NRS123, passage 15, selection group DAP + TMP/SMX
[25] = NRS123, passage 15, selection group DAP + TR-700
[26] = NRS123, passage 15, selection group DAP + TR-705
[27] = NRS123, passage 15, selection group DAP + VAN
[28] = NRS123, passage 20, selection group DAP
[29] = NRS123, passage 20, selection group DAP + CLI
[30] = NRS123, passage 20, selection group DAP + LZD
[31] = NRS123, passage 20, selection group DAP + TET
[32] = NRS123, passage 20, selection group DAP + TIA
[33] = NRS123, passage 20, selection group DAP + TMP/SMX
[34] = NRS123, passage 20, selection group DAP + TR-700
[35] = NRS123, passage 20, selection group DAP + TR-705
[36] = NRS123, passage 20, selection group DAP + VAN
[37] = NRS123, passage 25, selection group DAP
[38] = NRS123, passage 25, selection group DAP + CLI
[39] = NRS123, passage 25, selection group DAP + LZD
[40] = NRS123, passage 25, selection group DAP + TET
[41] = NRS123, passage 25, selection group DAP + TIA
[42] = NRS123, passage 25, selection group DAP + TMP/SMX
[43] = NRS123, passage 25, selection group DAP + TR-700
[44] = NRS123, passage 25, selection group DAP + TR-705
[45] = NRS123, passage 25, selection group DAP + VAN
[46] = NRS123, passage 30, selection group DAP
[47] = NRS123, passage 30, selection group DAP + CLI
[48] = NRS123, passage 30, selection group DAP + LZD
[49] = NRS123, passage 30, selection group DAP + TET
[50] = NRS123, passage 30, selection group DAP + TIA
[51] = NRS123, passage 30, selection group DAP + TMP/SMX
[52] = NRS123, passage 30, selection group DAP + TR-700
[53] = NRS123, passage 30, selection group DAP + TR-705
[54] = NRS123, passage 30, selection group DAP + VAN
[55] = NRS123, read-out: DAP MIC by the end of the experiment (selection of DAP^ns strains), MW2, passaged with DAP alone or with co-selecting agent at ¼ MIC, CLSI breakpoint

CCC[C@@H]1C[C@@H](C(=O)N[C@@H]([C@H]2O[C@H](SC)[C@H](O)[C@@H](O)[C@H]2O)[C@H](C)Cl)N(C)C1 [CLI, clindamycin]
MIC (NRS123, passage 0, NRS123 WT): 0.125 µg/mL (≈ 0.294 µM)
MIC [1]: 0.125 µg/mL (≈ 0.294 µM)
MIC [2]: 0.0625 µg/mL
MIC [3]: 0.0625 µg/mL
MIC [4]: 0.125 µg/mL
MIC [5]: 0.125 µg/mL
MIC [6]: 0.125 µg/mL
MIC [7]: 0.125 µg/mL
MIC [8]: 0.0625 µg/mL
MIC [9]: 0.125 µg/mL
MIC [10]: 0.125 µg/mL (≈ 0.294 µM)
MIC [11]: 0.0625 µg/mL
MIC [12]: 0.0625 µg/mL
MIC [13]: 0.0625 µg/mL
MIC [14]: 0.125 µg/mL
MIC [15]: 0.125 µg/mL
MIC [16]: 0.125 µg/mL
MIC [17]: 0.125 µg/mL
MIC [18]: 0.0625 µg/mL
MIC [19]: 0.125 µg/mL (≈ 0.294 µM)
MIC [20]: 0.0625 µg/mL
MIC [21]: 0.125 µg/mL
MIC [22]: 0.0313 µg/mL
MIC [23]: 0.0625 µg/mL
MIC [24]: 0.125 µg/mL
MIC [25]: 0.125 µg/mL
MIC [26]: 0.0625 µg/mL
MIC [27]: 0.125 µg/mL
MIC [28]: 0.0625 µg/mL (≈ 0.147 µM)
MIC [29]: 0.0625 µg/mL
MIC [30]: 0.125 µg/mL
MIC [31]: 0.0313 µg/mL
MIC [32]: 0.0625 µg/mL
MIC [33]: 0.125 µg/mL
MIC [34]: 0.125 µg/mL
MIC [35]: 0.0625 µg/mL
MIC [36]: 0.125 µg/mL
MIC [37]: 0.125 µg/mL (≈ 0.294 µM)
MIC [38]: 0.0625 µg/mL
MIC [39]: 0.0625 µg/mL
MIC [40]: 0.0313 µg/mL
MIC [41]: 0.0625 µg/mL
MIC [42]: 0.125 µg/mL
MIC [43]: 0.125 µg/mL
MIC [44]: 0.0625 µg/mL
MIC [45]: 0.125 µg/mL
MIC [46]: 0.125 µg/mL (≈ 0.294 µM)
MIC [47]: 0.0625 µg/mL
MIC [48]: 0.0625 µg/mL
MIC [49]: 0.0313 µg/mL
MIC [50]: 0.125 µg/mL
MIC [51]: 0.125 µg/mL
MIC [52]: 0.125 µg/mL
MIC [53]: 0.125 µg/mL
MIC [54]: 0.0625 µg/mL
MIC [55]: > 1 µg/mL

CN(C)[C@@H]1C(O)=C(C(N)=O)C(=O)[C@@]2(O)C(O)=C3C(=O)c4c(O)cccc4[C@@](C)(O)[C@H]3C[C@@H]12 [TET, tetracycline]
MIC (NRS123, passage 0, NRS123 WT): 0.5 µg/mL (≈ 1.13 µM)
MIC [1]: 0.25 µg/mL (≈ 0.563 µM)
MIC [2]: 0.5 µg/mL
MIC [3]: 0.5 µg/mL
MIC [4]: 0.25 µg/mL
MIC [5]: 0.5 µg/mL
MIC [6]: 0.125 µg/mL
MIC [7]: 0.5 µg/mL
MIC [8]: 0.5 µg/mL
MIC [9]: 0.25 µg/mL
MIC [10]: 0.125 µg/mL (≈ 0.281 µM)
MIC [11]: 0.5 µg/mL
MIC [12]: 0.25 µg/mL
MIC [13]: 0.5 µg/mL
MIC [14]: 0.25 µg/mL
MIC [15]: 0.5 µg/mL
MIC [16]: 0.5 µg/mL
MIC [17]: 0.125 µg/mL
MIC [18]: 0.25 µg/mL
MIC [19]: 0.25 µg/mL (≈ 0.563 µM)
MIC [20]: 0.125 µg/mL
MIC [21]: 0.25 µg/mL
MIC [22]: 0.5 µg/mL
MIC [23]: 0.25 µg/mL
MIC [24]: 0.25 µg/mL
MIC [25]: 0.25 µg/mL
MIC [26]: 0.25 µg/mL
MIC [27]: 0.25 µg/mL
MIC [28]: 0.125 µg/mL (≈ 0.281 µM)
MIC [29]: 0.125 µg/mL
MIC [30]: 0.25 µg/mL
MIC [31]: 0.25 µg/mL
MIC [32]: 0.25 µg/mL
MIC [33]: 0.25 µg/mL
MIC [34]: 0.25 µg/mL
MIC [35]: 0.125 µg/mL
MIC [36]: 0.25 µg/mL
MIC [37]: 0.125 µg/mL (≈ 0.281 µM)
MIC [38]: 0.125 µg/mL
MIC [39]: 0.25 µg/mL
MIC [40]: 0.25 µg/mL
MIC [41]: 0.25 µg/mL
MIC [42]: 0.25 µg/mL
MIC [43]: 0.25 µg/mL
MIC [44]: 0.125 µg/mL
MIC [45]: 0.25 µg/mL
MIC [46]: 0.25 µg/mL (≈ 0.563 µM)
MIC [47]: 0.25 µg/mL
MIC [48]: 0.25 µg/mL
MIC [49]: 0.5 µg/mL
MIC [50]: 0.5 µg/mL
MIC [51]: 0.5 µg/mL
MIC [52]: 0.5 µg/mL
MIC [53]: 0.25 µg/mL
MIC [54]: 0.5 µg/mL
MIC [55]: > 1 µg/mL
